In paper PMC7201284, “A complete compendium of crystal structures for the human SEPT3 subgroup reveals functional plasticity at a specific septin interface” (IUCrJ, 2020):

How the values were obtained:
Experiment in all cases: X-ray crystallography, co-crystallization
SEPT3α0G = target: T1, SEPT3α0G (Homo sapiens, UniProt Q9UH03); conditions: 1.83 Å; Mg2+ in active site; nucleotide-binding site at G interface
T1 construct: gene SEPTIN3; G domain plus polybasic helix α0, residues 43-330; expressed and purified as in Macedo et al. 2013; monomer in solution; homotypic G-interface dimers in crystal
T1 sequence (Q9UH03 43-330): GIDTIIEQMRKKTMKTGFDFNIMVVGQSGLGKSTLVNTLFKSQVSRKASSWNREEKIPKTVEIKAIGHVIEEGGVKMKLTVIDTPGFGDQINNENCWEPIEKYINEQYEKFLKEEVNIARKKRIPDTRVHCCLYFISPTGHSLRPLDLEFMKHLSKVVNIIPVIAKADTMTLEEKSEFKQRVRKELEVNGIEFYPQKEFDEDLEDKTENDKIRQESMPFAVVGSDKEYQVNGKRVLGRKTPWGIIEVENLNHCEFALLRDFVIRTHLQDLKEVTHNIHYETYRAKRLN

SEPT9GC = target: T2, SEPT9GC (Homo sapiens, UniProt Q9UHD8); conditions: about 2.0 Å; Mg2+; nucleotide-binding site at G interface
T2 construct: gene SEPTIN9; G domain plus C-terminal region, residues 279-568, pET-28a(+) His-tag, E. coli Rosetta (DE3); monomer about 38 kDa; purified nucleotide-free
T2 sequence (Q9UHD8 279-568): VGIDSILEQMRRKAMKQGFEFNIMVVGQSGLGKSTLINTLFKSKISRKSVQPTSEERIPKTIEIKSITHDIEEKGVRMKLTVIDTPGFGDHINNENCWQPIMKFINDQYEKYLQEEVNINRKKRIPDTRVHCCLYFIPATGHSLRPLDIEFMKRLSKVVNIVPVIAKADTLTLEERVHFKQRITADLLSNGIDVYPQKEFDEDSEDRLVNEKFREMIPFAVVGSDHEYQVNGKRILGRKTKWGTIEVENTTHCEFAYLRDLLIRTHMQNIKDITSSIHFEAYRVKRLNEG

SEPT12G = target: T3, SEPT12G (Homo sapiens, UniProt Q8IYM1); conditions: Mg2+, nucleotide-binding site
T3 construct: gene SEPTIN12; G domain, residues 47-320, pET-28a(+) His-tag, E. coli Rosetta (DE3); monomer about 32 kDa
T3 sequence (Q8IYM1 47-320): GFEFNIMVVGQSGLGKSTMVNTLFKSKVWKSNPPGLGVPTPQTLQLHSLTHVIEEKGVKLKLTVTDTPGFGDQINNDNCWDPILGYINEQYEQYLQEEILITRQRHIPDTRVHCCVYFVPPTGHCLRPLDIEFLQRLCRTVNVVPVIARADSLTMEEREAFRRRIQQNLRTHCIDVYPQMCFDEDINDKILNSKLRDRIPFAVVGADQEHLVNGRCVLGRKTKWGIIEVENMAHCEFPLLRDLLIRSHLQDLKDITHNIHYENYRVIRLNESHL

SEPT3G = target: T4, SEPT3G (Homo sapiens, UniProt Q9UH03); conditions: 1.86 Å; Mg2+; nucleotide-binding site; b26 labels 4z51 as GTPγS but methods, Table 2 and results say GMPPNP
T4 construct: gene SEPTIN3; G domain without helix α0, residues 59-330; expressed and purified as in Macedo et al. 2013; monomer in solution; homotypic G-interface dimers in crystal
T4 sequence (Q9UH03 59-330): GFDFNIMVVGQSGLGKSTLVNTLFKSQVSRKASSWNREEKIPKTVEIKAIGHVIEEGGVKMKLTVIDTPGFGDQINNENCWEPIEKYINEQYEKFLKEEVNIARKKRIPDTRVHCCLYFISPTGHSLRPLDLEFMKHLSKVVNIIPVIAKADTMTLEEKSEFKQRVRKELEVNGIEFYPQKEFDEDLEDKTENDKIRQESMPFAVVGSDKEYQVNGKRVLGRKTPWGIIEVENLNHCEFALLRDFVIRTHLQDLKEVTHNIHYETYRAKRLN

Compound	X-ray crystallography, co-crystallization (SEPT3α0G)	X-ray crystallography, co-crystallization (SEPT9GC)	X-ray crystallography, co-crystallization (SEPT12G; 2.19 Å, small quantity of GDP also co-purified)	X-ray crystallography, co-crystallization (SEPT3G)	X-ray crystallography, co-crystallization (SEPT12G; 1.86 Å (P1, 6mq9) and 2.12 Å (C2221, 6mqb))
Nc1nc2c(ncn2[C@@H]2O[C@H](COP(=O)(O)OP(=O)(O)O)[C@@H](O)[C@H]2O)c(=O)[nH]1 [GDP]	structures of the G domain of SEPT3 complexed with either GDP or the GTP mimetic GMPPNP	The structure of SEPT9GC–GDP (PDB entry 5cyo) has a G-interface dimer in the asymmetric unit	In SEPT12G–GDP (PDB entry 6mqk) the metal ion is canonically coordinated by Thr89, Ser63	–	–
Nc1nc2c(ncn2[C@@H]2O[C@H](COP(=O)(O)OP(=O)(O)NP(=O)(O)O)[C@@H](O)[C@H]2O)c(=O)[nH]1 [GMPPNP]	–	–	–	The SEPT3G–GMPPNP complex (PDB entry 4z51) has only one monomer per asymmetric unit	Two structures were obtained in the presence of GMPPNP
